Assay results from the supplement of paper PMC10307832.

Tests used:
Test in all cases: relative viability (nuclei count vs DMSO), 5 days (fraction); higher = more cells survive
Zosuquidar + Decitabine = compound: O[C@@H](COc1cccc2ncccc12)CN1CCN([C@@H]2c3ccccc3[C@@H]3[C@H](c4ccccc42)C3(F)F)CC1 [Zosuquidar] + Nc1ncn([C@H]2C[C@H](O)[C@@H](CO)O2)c(=O)n1 [Decitabine] (partner 2 µM)
How it was run: (§1)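 One day after seeding in 1536-well plates, lung cancer cell lines were dosed by pin tool. Dosing was either single-drug or a fixed anchor-drug dose plus five library-drug doses (not always all listed) in √10 steps. After 5 days, nuclei were stained in one fix-and-stain step and counted on 4× images, and relative viability is the nuclei count of treated wells over that of vehicle wells, given as the median of duplicate plates.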

Zosuquidar + Alpelisib = compound: O[C@@H](COc1cccc2ncccc12)CN1CCN([C@@H]2c3ccccc3[C@@H]3[C@H](c4ccccc42)C3(F)F)CC1 [Zosuquidar] + Cc1nc(NC(=O)N2CCC[C@H]2C(N)=O)sc1-c1ccnc(C(C)(C)C(F)(F)F)c1 [Alpelisib] (partner 2 µM)
How it was run: as §1

Kobe2602 + Pemetrexed = compound: C1=CC(=CC=C1NC(=S)NNC2=C(C=C(C=C2[N+](=O)[O-])C(F)(F)F)[N+](=O)[O-])F [Kobe2602] + Nc1nc2[nH]cc(CCc3ccc(C(=O)N[C@@H](CCC(=O)O)C(=O)O)cc3)c2c(=O)[nH]1 [Pemetrexed] (partner 0.2 µM)
How it was run: as §1

Kobe2602 + Trametinib = compound: C1=CC(=CC=C1NC(=S)NNC2=C(C=C(C=C2[N+](=O)[O-])C(F)(F)F)[N+](=O)[O-])F [Kobe2602] + CC(=O)Nc1cccc(-n2c(=O)n(C3CC3)c(=O)c3c(Nc4ccc(I)cc4F)n(C)c(=O)c(C)c32)c1 [Trametinib] (partner 0.02 µM)
How it was run: as §1

| Cell Line | relative viability (Zosuquidar + Decitabine; first compound 0.01 µM) | relative viability (Zosuquidar + Decitabine; first compound 0.03162 µM) | relative viability (Zosuquidar + Decitabine; first compound 0.1 µM) | relative viability (Zosuquidar + Decitabine; first compound 0.3162 µM) | relative viability (Zosuquidar + Decitabine; first compound 1 µM) | relative viability (Zosuquidar + Alpelisib; first compound 0.01 µM) | relative viability (Zosuquidar + Alpelisib; first compound 0.03162 µM) | relative viability (Zosuquidar + Alpelisib; first compound 0.1 µM) | relative viability (Zosuquidar + Alpelisib; first compound 0.3162 µM) | relative viability (Zosuquidar + Alpelisib; first compound 1 µM) | relative viability (Kobe2602 + Pemetrexed; first compound 0.2 µM) | relative viability (Kobe2602 + Pemetrexed; first compound 0.6325 µM) | relative viability (Kobe2602 + Pemetrexed; first compound 2 µM) | relative viability (Kobe2602 + Pemetrexed; first compound 6.325 µM) | relative viability (Kobe2602 + Pemetrexed; first compound 20 µM) | relative viability (Kobe2602 + Trametinib; first compound 0.2 µM) | relative viability (Kobe2602 + Trametinib; first compound 0.6325 µM) | relative viability (Kobe2602 + Trametinib; first compound 2 µM) | relative viability (Kobe2602 + Trametinib; first compound 6.325 µM) | relative viability (Kobe2602 + Trametinib; first compound 20 µM) |
| --- | --- | --- | --- | --- | --- | --- | --- | --- | --- | --- | --- | --- | --- | --- | --- | --- | --- | --- | --- | --- |
| NCI-H520 | 0.505 | 0.523 | 0.395 | 0.472 | 0.47 | 0.941 | 0.784 | 0.778 | 0.981 | 0.837 | 0.709 | 0.675 | 0.559 | 0.724 | 0.772 | 0.682 | 0.642 | 0.744 | 0.644 | 0.788 |
| NCI-H1395 | 0.707 | 0.765 | – | 0.765 | 0.773 | 1 | 1.01 | 0.819 | 1.17 | 1.17 | 1.04 | 1.01 | 0.931 | 0.967 | 0.843 | 0.991 | 1.06 | 1.03 | 0.989 | 1.19 |
| NCI-H2085 | 0.556 | 0.586 | – | 0.653 | 0.55 | 0.957 | 0.917 | 0.893 | 1 | 0.977 | 0.944 | 0.882 | 0.959 | 0.904 | 0.901 | 0.614 | 0.516 | 0.491 | 0.409 | 0.514 |
| NCI-H661 | 0.557 | 0.54 | 0.595 | 0.516 | 0.523 | 0.48 | 0.621 | 0.408 | 0.614 | 0.703 | 0.893 | 0.947 | 0.913 | 0.932 | 0.924 | 0.554 | 0.594 | 0.594 | 0.622 | 0.522 |
| NCI-H1944 | 0.365 | 0.454 | 0.469 | 0.453 | 0.439 | 0.836 | 0.722 | 0.717 | 0.837 | 0.765 | 0.632 | 0.658 | 0.738 | 0.626 | 0.62 | 0.418 | 0.409 | 0.404 | 0.442 | 0.423 |
| NCI-H2170 | 0.451 | 0.476 | 0.482 | 0.466 | 0.512 | 0.799 | 0.786 | 0.774 | 0.821 | 0.769 | 0.293 | 0.26 | 0.242 | 0.295 | 0.263 | 0.982 | 0.918 | 0.921 | 0.878 | 0.922 |
| NCI-H322M | 0.598 | 0.548 | 0.666 | 0.632 | 0.625 | 0.836 | 0.739 | 0.648 | 0.859 | 0.728 | 0.63 | 0.646 | 0.605 | 0.652 | 0.631 | 0.555 | 0.495 | 0.5 | 0.467 | 0.521 |
| LCLC-103H | 0.803 | 0.724 | 0.787 | 0.739 | 0.772 | 1.02 | 1.12 | 1.01 | 1.02 | 0.926 | 0.494 | 0.502 | 0.454 | 0.438 | 0.449 | 0.651 | 0.731 | 0.674 | 0.73 | 0.644 |
| NCI-H647 | 0.396 | 0.444 | 0.429 | 0.378 | 0.318 | 1.25 | 1.12 | 1.28 | 1.11 | 1.39 | 0.178 | 0.22 | 0.174 | 0.172 | 0.184 | 0.383 | 0.474 | 0.505 | 0.425 | 0.494 |
| NCI-H1792 | 0.545 | 0.532 | 0.603 | 0.584 | 0.556 | 0.66 | 0.813 | 0.53 | 0.705 | 0.799 | 0.679 | 0.964 | 0.714 | 0.887 | 0.814 | 0.445 | 0.446 | 0.401 | 0.564 | 0.366 |
| LK-2 | 0.247 | 0.361 | 0.28 | 0.372 | 0.304 | 1.29 | 1.26 | 0.939 | 1.08 | 1.02 | 0.259 | 0.188 | 0.279 | 0.248 | 0.328 | 0.839 | 0.856 | 0.744 | 0.631 | 0.852 |
| NCI-H1755 | 0.672 | 0.663 | 0.716 | 0.728 | 0.708 | 0.89 | 0.951 | 0.888 | 0.94 | 0.913 | 0.514 | 0.419 | 0.447 | 0.391 | 0.398 | 0.825 | 0.728 | 0.779 | 0.766 | 0.726 |
| EPLC-272H | 0.393 | 0.429 | 0.4 | 0.392 | 0.376 | 0.946 | 0.999 | 0.801 | 0.936 | 0.805 | 0.353 | 0.35 | 0.301 | 0.318 | 0.279 | 0.263 | 0.288 | 0.304 | 0.278 | 0.299 |
